Source: paper PMC5218480 (PLoS ONE, 2017)

System: MV-4-11 cells
Assay: Gene expression microarray analysis (Affymetrix PrimeView) and GSEA
Assay type: cell-based, human
Parameters: RFU PODN (11730768_x_at) / Fold change /veh PODN (11730768_x_at) / RFU LINC00158 (11744669_a_at) / Fold change /veh LINC00158 (11744669_a_at) / RFU DUSP10 (11751237_a_at) / Fold change /veh DUSP10 (11751237_a_at) / RFU ID3 (11757404_x_at) / Fold change /veh ID3 (11757404_x_at) / RFU PLEKHG5 (11737974_s_at) / Fold change /veh PLEKHG5 (11737974_s_at) / RFU LRRC4B (11730491_at) / Fold change /veh LRRC4B (11730491_at) / RFU GIMAP4 (11747438_a_at) / Fold change /veh GIMAP4 (11747438_a_at) / RFU KRT8 (11758183_x_at) / Fold change /veh KRT8 (11758183_x_at) / RFU CNN1 (11734310_a_at) / Fold change /veh CNN1 (11734310_a_at) / RFU VPS37D (11726825_at) / Fold change /veh VPS37D (11726825_at) / RFU C10orf10 (11716522_x_at) / Fold change /veh C10orf10 (11716522_x_at) / RFU KIR2DL2 /// KIR2DL4 /// KIR2DL5A /// KIR2DL5B /// KIR2DS1 /// KIR2DS2 /// KIR2DS3 /// KIR2DS4 /// KIR3DL3 /// KIR3DL3 /// KIR3DS1 (11738374_at) / Fold change /veh KIR2DL2 /// KIR2DL4 /// KIR2DL5A /// KIR2DL5B /// KIR2DS1 /// KIR2DS2 /// KIR2DS3 /// KIR2DS4 /// KIR3DL3 /// KIR3DL3 /// KIR3DS1 (11738374_at) / RFU C1QL1 (11718748_at) / Fold change /veh C1QL1 (11718748_at) / RFU TMPRSS4 (11747572_a_at) / Fold change /veh TMPRSS4 (11747572_a_at) / RFU HAMP (11756126_x_at) / Fold change /veh HAMP (11756126_x_at) / RFU RNFT2 (11725882_a_at) / Fold change /veh RNFT2 (11725882_a_at) / RFU NR4A2 (11747474_a_at) / Fold change /veh NR4A2 (11747474_a_at) / RFU ABCC12 (11746883_a_at) / Fold change /veh ABCC12 (11746883_a_at) / RFU TMEM136 (11760407_x_at) / Fold change /veh TMEM136 (11760407_x_at) / RFU CLDN22 /// WWC2 (11732394_at) / Fold change /veh CLDN22 /// WWC2 (11732394_at) / RFU HLA-DPB1 (11760878_x_at) / Fold change /veh HLA-DPB1 (11760878_x_at) / RFU SPINT1 (11716480_a_at) / Fold change /veh SPINT1 (11716480_a_at) / RFU GAP43 (11754022_s_at) / Fold change /veh GAP43 (11754022_s_at) / RFU A4GNT (11735810_at) / Fold change /veh A4GNT (11735810_at) / RFU PRB3 (11715151_x_at) / Fold change /veh PRB3 (11715151_x_at) / RFU TUBB4B (11761932_at) / Fold change /veh TUBB4B (11761932_at) / RFU CAPN14 (11732068_a_at) / Fold change /veh CAPN14 (11732068_a_at) / RFU TMCC2 (11721928_a_at) / Fold change /veh TMCC2 (11721928_a_at) / RFU IRGQ (11745062_a_at) / Fold change /veh IRGQ (11745062_a_at) / RFU FAM174B (11720279_a_at) / Fold change /veh FAM174B (11720279_a_at) / RFU TMPRSS4 (11748680_a_at) / Fold change /veh TMPRSS4 (11748680_a_at) / RFU FAM212B (11763350_a_at) / Fold change /veh FAM212B (11763350_a_at) / RFU PLEKHG5 (11743358_a_at) / Fold change /veh PLEKHG5 (11743358_a_at) / RFU ZSCAN30 (11745921_a_at) / Fold change /veh ZSCAN30 (11745921_a_at) / RFU CMKLR1 (11741424_a_at) / Fold change /veh CMKLR1 (11741424_a_at) / RFU LOC101060620 /// MAPK8IP1 (11723275_at) / Fold change /veh LOC101060620 /// MAPK8IP1 (11723275_at) / RFU SPTSSB (11747773_x_at) / Fold change /veh SPTSSB (11747773_x_at) / RFU PRSS12 (11739890_at) / Fold change /veh PRSS12 (11739890_at) / RFU BIN1 (11741810_x_at) / Fold change /veh BIN1 (11741810_x_at) / RFU WNT11 (11732464_a_at) / Fold change /veh WNT11 (11732464_a_at) / RFU C10orf10 (11716521_a_at) / Fold change /veh C10orf10 (11716521_a_at) / RFU C5orf56 (11738089_at) / Fold change /veh C5orf56 (11738089_at) / RFU CYB561 (11721691_x_at) / Fold change /veh CYB561 (11721691_x_at) / RFU ANKRD19P (11752326_a_at) / Fold change /veh ANKRD19P (11752326_a_at) / RFU OR2T12 /// OR2T33 /// OR2T8 (11738714_s_at) / Fold change /veh OR2T12 /// OR2T33 /// OR2T8 (11738714_s_at) / RFU VCAN (11748164_a_at) / Fold change /veh VCAN (11748164_a_at) / RFU JSRP1 (11732532_at) / Fold change /veh JSRP1 (11732532_at) / RFU KRTAP10-11 (11738290_x_at) / Fold change /veh KRTAP10-11 (11738290_x_at) / RFU MYO3A (11730013_a_at) / Fold change /veh MYO3A (11730013_a_at) / RFU EBF3 (11725865_a_at) / Fold change /veh EBF3 (11725865_a_at) / RFU CAMK2N1 (11719241_x_at) / Fold change /veh CAMK2N1 (11719241_x_at) / RFU C5orf56 (11738088_a_at) / Fold change /veh C5orf56 (11738088_a_at) / RFU OLFML3 (11715873_a_at) / Fold change /veh OLFML3 (11715873_a_at) / RFU LOC100653217 /// NTM (11731650_a_at) / Fold change /veh LOC100653217 /// NTM (11731650_a_at) / RFU MAPK11 (11762145_a_at) / Fold change /veh MAPK11 (11762145_a_at) / RFU FIZ1 (11724087_x_at) / Fold change /veh FIZ1 (11724087_x_at) / RFU OASL (11726364_x_at) / Fold change /veh OASL (11726364_x_at) / RFU SOX15 (11748057_x_at) / Fold change /veh SOX15 (11748057_x_at) / RFU CD79A (11719716_a_at) / Fold change /veh CD79A (11719716_a_at) / RFU HIST1H1D (11736915_at) / Fold change /veh HIST1H1D (11736915_at) / RFU CASKIN2 (11723855_a_at) / Fold change /veh CASKIN2 (11723855_a_at) / RFU LOC730098 (11760151_x_at) / Fold change /veh LOC730098 (11760151_x_at) / RFU OR4N2 (11742367_at) / Fold change /veh OR4N2 (11742367_at) / RFU PRRT2 (11749266_a_at) / Fold change /veh PRRT2 (11749266_a_at) / RFU SNX32 (11753110_a_at) / Fold change /veh SNX32 (11753110_a_at) / RFU CDHR5 (11726645_a_at) / Fold change /veh CDHR5 (11726645_a_at) / RFU RCAN1 (11760418_a_at) / Fold change /veh RCAN1 (11760418_a_at) / RFU FAM167A (11723789_a_at) / Fold change /veh FAM167A (11723789_a_at) / RFU FAM26E (11764081_at) / Fold change /veh FAM26E (11764081_at) / RFU ISYNA1 (11749810_s_at) / Fold change /veh ISYNA1 (11749810_s_at) / RFU ACY1 (11761880_at) / Fold change /veh ACY1 (11761880_at) / RFU 11764098_at / Fold change /veh 11764098_at / RFU SAMD14 (11745864_x_at) / Fold change /veh SAMD14 (11745864_x_at) / RFU NPB (11741838_a_at) / Fold change /veh NPB (11741838_a_at) / RFU TMPRSS6 (11731388_a_at) / Fold change /veh TMPRSS6 (11731388_a_at) / RFU KRTAP10-2 (11738614_at) / Fold change /veh KRTAP10-2 (11738614_at) / RFU ARHGAP8 /// PRR5-ARHGAP8 (11727945_x_at) / Fold change /veh ARHGAP8 /// PRR5-ARHGAP8 (11727945_x_at) / RFU KRTAP5-7 /// NADSYN1 (11734609_at) / Fold change /veh KRTAP5-7 /// NADSYN1 (11734609_at) / RFU RASL12 (11751679_a_at) / Fold change /veh RASL12 (11751679_a_at) / RFU CDKN2B (11736163_a_at) / Fold change /veh CDKN2B (11736163_a_at) / RFU PRF1 (11729649_at) / Fold change /veh PRF1 (11729649_at) / RFU, ZNF638 /// ZNF638-IT1 / Fold change vs veh, ZNF638 /// ZNF638-IT1 / RFU, PANK3 / Fold change vs veh, PANK3 / RFU, SH3YL1 / Fold change vs veh, SH3YL1 / RFU, ZEB2 / Fold change vs veh, ZEB2 / RFU, NRIP1 / Fold change vs veh, NRIP1 / RFU, PTTG1IP / Fold change vs veh, PTTG1IP / RFU, CAPN2 / Fold change vs veh, CAPN2 / RFU, MED14 / Fold change vs veh, MED14 / RFU, SNORA58 / Fold change vs veh, SNORA58 / RFU, C1orf63 / Fold change vs veh, C1orf63 / RFU, LRRFIP1 / Fold change vs veh, LRRFIP1 / RFU, NDUFAF7 / Fold change vs veh, NDUFAF7 / RFU, SLC12A2 / Fold change vs veh, SLC12A2 / RFU, IBTK / Fold change vs veh, IBTK / RFU, ESF1 / Fold change vs veh, ESF1 / Fold change vs veh, TMEM50B / RFU, TAOK1 / Fold change vs veh, TAOK1 / RFU, ACBD3 / Fold change vs veh, ACBD3 / RFU, TMA16 / Fold change vs veh, TMA16 / RFU, RWDD3 / Fold change vs veh, RWDD3 / RFU, BCAT1 / Fold change vs veh, BCAT1 / RFU, EDEM3 / Fold change vs veh, EDEM3 / RFU, TMEM33 / Fold change vs veh, TMEM33 / RFU, WDR75 / Fold change vs veh, WDR75 / RFU, AHCTF1 / Fold change vs veh, AHCTF1 / RFU, TFRC / Fold change vs veh, TFRC / RFU, ZDHHC17 / Fold change vs veh, ZDHHC17 / RFU, NOM1 / Fold change vs veh, NOM1 / RFU, ARL8B / Fold change vs veh, ARL8B / RFU, ZBTB11 / Fold change vs veh, ZBTB11 / RFU, TAMM41 / Fold change vs veh, TAMM41 / RFU, KIAA1704 /// LOC100996395 / Fold change vs veh, KIAA1704 /// LOC100996395 / RFU, ING1 / Fold change vs veh, ING1 / RFU, TRMT61B / Fold change vs veh, TRMT61B / RFU, FUBP3 / Fold change vs veh, FUBP3 / RFU, TP53 / Fold change vs veh, TP53 / RFU, TNKS2 / Fold change vs veh, TNKS2 / RFU, ZFP14 / Fold change vs veh, ZFP14 / RFU, ACTR2 / Fold change vs veh, ACTR2 / RFU, PPP3R1 / Fold change vs veh, PPP3R1 / RFU, PIK3R1 / Fold change vs veh, PIK3R1 / RFU, HNRNPA1 / Fold change vs veh, HNRNPA1 / RFU, RNF170 / Fold change vs veh, RNF170 / RFU, ZNF28 / Fold change vs veh, ZNF28 / RFU, RNGTT / Fold change vs veh, RNGTT / RFU, OGT / Fold change vs veh, OGT / RFU, BRD1 / Fold change vs veh, BRD1 / RFU, MARS / Fold change vs veh, MARS / RFU, ZNF655 / Fold change vs veh, ZNF655 / RFU, FAHD1 / Fold change vs veh, FAHD1 / RFU, BDP1 / Fold change vs veh, BDP1 / RFU, LRRCC1 / Fold change vs veh, LRRCC1 / RFU, ARID1A / Fold change vs veh, ARID1A / RFU, ZNF146 / Fold change vs veh, ZNF146 / RFU, ZNF330 / Fold change vs veh, ZNF330 / RFU, GPN3 / Fold change vs veh, GPN3 / RFU, C9orf123 / Fold change vs veh, C9orf123 / RFU, N4BP2L2 / Fold change vs veh, N4BP2L2 / RFU, ARFIP1 / Fold change vs veh, ARFIP1 / RFU, FAM179B / Fold change vs veh, FAM179B / RFU, BCL10 / Fold change vs veh, BCL10 / RFU, UHRF1BP1L / Fold change vs veh, UHRF1BP1L / RFU, BET1 / Fold change vs veh, BET1 / RFU, CNOT2 / Fold change vs veh, CNOT2 / RFU, ZNF268 / Fold change vs veh, ZNF268 / Fold change vs veh, ZNF507 / RFU, DGCR2 / Fold change vs veh, DGCR2 / RFU, WDSUB1 / Fold change vs veh, WDSUB1 / Fold change vs veh, HSP90B1 /// MIR3652 / RFU, ADSS / Fold change vs veh, ADSS / RFU, GK / Fold change vs veh, GK / RFU, ZNF148 / Fold change vs veh, ZNF148 / RFU, TAF9 / Fold change vs veh, TAF9 / RFU, SLC1A5 / Fold change vs veh, SLC1A5 / RFU, SLMO2 / Fold change vs veh, SLMO2 / RFU, ABCC4 / Fold change vs veh, ABCC4 / RFU, LOC101060439 /// RAP1B / Fold change vs veh, LOC101060439 /// RAP1B / RFU, RFX7 / Fold change vs veh, RFX7 / RFU, GTPBP10 / Fold change vs veh, GTPBP10 / RFU, CNEP1R1 / Fold change vs veh, CNEP1R1 / RFU, BIVM-ERCC5 /// ERCC5 / Fold change vs veh, BIVM-ERCC5 /// ERCC5 / RFU, ILF3 / Fold change vs veh, ILF3 / RFU 11762660_at / Fold change /veh 11762660_at / RFU VCAN (11757783_s_at) / Fold change /veh VCAN (11757783_s_at) / RFU DDX43 (11728927_at) / Fold change /veh DDX43 (11728927_at) / RFU KRT8 (11758188_x_at) / Fold change /veh KRT8 (11758188_x_at) / RFU NKD1 (11759106_at) / Fold change /veh NKD1 (11759106_at) / RFU SRD5A1 (11742802_a_at) / Fold change /veh SRD5A1 (11742802_a_at) / RFU TPSAB1 /// TPSB2 (11721975_s_at) / Fold change /veh TPSAB1 /// TPSB2 (11721975_s_at) / RFU GSTM3 (11746129_a_at) / Fold change /veh GSTM3 (11746129_a_at) / RFU IL23R (11737362_x_at) / Fold change /veh IL23R (11737362_x_at) / RFU TMEM51 (11727254_a_at) / Fold change /veh TMEM51 (11727254_a_at) / RFU PIWIL2 (11732686_x_at) / Fold change /veh PIWIL2 (11732686_x_at) / RFU ORM1 (11744905_x_at) / Fold change /veh ORM1 (11744905_x_at) / RFU CCDC152 (11743942_at) / Fold change /veh CCDC152 (11743942_at) / RFU ECM1 (11717891_a_at) / Fold change /veh ECM1 (11717891_a_at) / RFU IL23R (11748794_a_at) / Fold change /veh IL23R (11748794_a_at) / RFU TNFAIP8L3 (11732012_x_at) / Fold change /veh TNFAIP8L3 (11732012_x_at) / RFU MBOAT4 (11741988_at) / Fold change /veh MBOAT4 (11741988_at) / RFU 11764193_at / Fold change /veh 11764193_at / RFU TMEM53 (11763286_at) / Fold change /veh TMEM53 (11763286_at) / RFU MAGEB2 (11727129_at) / Fold change /veh MAGEB2 (11727129_at) / RFU TMEM200A (11744735_a_at) / Fold change /veh TMEM200A (11744735_a_at) / RFU CCDC152 (11751479_a_at) / Fold change /veh CCDC152 (11751479_a_at) / RFU FAM211A (11726209_a_at) / Fold change /veh FAM211A (11726209_a_at) / RFU RGS16 (11746705_a_at) / Fold change /veh RGS16 (11746705_a_at) / RFU VCAN (11755009_s_at) / Fold change /veh VCAN (11755009_s_at) / RFU RHOB (11743442_s_at) / Fold change /veh RHOB (11743442_s_at) / RFU RGS16 (11720943_a_at) / Fold change /veh RGS16 (11720943_a_at) / RFU RGS16 (11720944_at) / Fold change /veh RGS16 (11720944_at) / RFU, VPS4B / Fold change vs veh, VPS4B / RFU, CREB1 / Fold change vs veh, CREB1 / RFU, DNAJC13 / Fold change vs veh, DNAJC13 / RFU, GNAQ / Fold change vs veh, GNAQ / RFU, CDK5R1 / Fold change vs veh, CDK5R1 / RFU, ZRANB3 / Fold change vs veh, ZRANB3 / RFU, CUL4A / Fold change vs veh, CUL4A / RFU, CCNY / Fold change vs veh, CCNY / RFU, UFL1 / Fold change vs veh, UFL1 / RFU, COG3 / Fold change vs veh, COG3 / RFU, DIAPH2 / Fold change vs veh, DIAPH2 / RFU, SKA2 / Fold change vs veh, SKA2 / RFU, AFF3 / Fold change vs veh, AFF3 / RFU, LMF1 / Fold change vs veh, LMF1 / RFU, IPO11 / Fold change vs veh, IPO11 / RFU, DFFB / Fold change vs veh, DFFB / RFU, FOXP1 / Fold change vs veh, FOXP1 / RFU, CARD8 / Fold change vs veh, CARD8 / RFU, STRN3 / Fold change vs veh, STRN3 / RFU, ADK / Fold change vs veh, ADK / RFU, RASSF2 / Fold change vs veh, RASSF2 / RFU, WIPF1 / Fold change vs veh, WIPF1 / RFU, LARP1B / Fold change vs veh, LARP1B / RFU, RASA1 / Fold change vs veh, RASA1 / RFU, RB1 / Fold change vs veh, RB1 / RFU, PPFIA1 / Fold change vs veh, PPFIA1 / RFU, MAT2A / Fold change vs veh, MAT2A / RFU, CCT5 / Fold change vs veh, CCT5 / RFU, WDR92 / Fold change vs veh, WDR92 / RFU, CUX1 / Fold change vs veh, CUX1 / RFU, TTC7A / Fold change vs veh, TTC7A / RFU, TMEM135 / Fold change vs veh, TMEM135 / RFU, DEPTOR / Fold change vs veh, DEPTOR / RFU, CPM / Fold change vs veh, CPM / RFU, DNAJB6 / Fold change vs veh, DNAJB6 / RFU, CACNA2D3 / Fold change vs veh, CACNA2D3 / RFU, DTX4 / Fold change vs veh, DTX4 / RFU, TFCP2 / Fold change vs veh, TFCP2 / RFU, GMCL1 /// GMCL1P1 / Fold change vs veh, GMCL1 /// GMCL1P1 / RFU, AEBP2 / Fold change vs veh, AEBP2 / RFU, SNHG1 /// SNORD22 /// SNORD25 /// SNORD26 /// SNORD27 /// SNORD28 /// SNORD29 /// SNORD31 / Fold change vs veh, SNHG1 /// SNORD22 /// SNORD25 /// SNORD26 /// SNORD27 /// SNORD28 /// SNORD29 /// SNORD31 / Fold change (Aza/veh), C12orf56 (ProbeSet 11735607_a_at) / Fold change (ACY-1035/veh), C12orf56 (ProbeSet 11735607_a_at) / Fold change (Aza/veh), FGFR1OP (ProbeSet 11751329_s_at) / Fold change (ACY-1035/veh), FGFR1OP (ProbeSet 11751329_s_at) / Fold change (Aza/veh), VPS36 (ProbeSet 11739960_a_at) / Fold change (ACY-1035/veh), VPS36 (ProbeSet 11739960_a_at) / RFU SYPL1 (11715823_x_at) / Fold change /veh SYPL1 (11715823_x_at) / RFU IGFBP7 (11715501_s_at) / Fold change /veh IGFBP7 (11715501_s_at) / RFU REEP3 (11722064_at) / Fold change /veh REEP3 (11722064_at) / RFU IGLL1 (11728026_x_at) / Fold change /veh IGLL1 (11728026_x_at): dose or concentration left out as unconfirmed
Conditions: ProbeSet 11725885_a_at; LIST B

**Q.** Which “RFU, CNEP1R1” value does the source give for `Nc1ncn([C@@H]2O[C@H](CO)[C@@H](O)[C@H]2O)c(=O)n1` [azacitidine] here?
**A.** Its value is 65.19 RFU.
